In DBAASP:
Values after ≈ are worked out from the molar mass of the structure shown. One block for each molecule: values may come before it.

Key:
Experiment in all cases: ≥ marks a high value that may be exact or a test limit, other limits are often not marked, values filed in µg/mL are converted to µM
[1] = tested on: Aeromonas salmonicida 99-1
[2] = tested on: Pseudomonas aeruginosa K799
Candida albicans C627 = tested on: Candida albicans C627
[3] = tested on: Staphylococcus aureus C623
[4] = tested on: Pseudomonas aeruginosa Z61
Escherichia coli UB1005 = tested on: Escherichia coli UB1005
[5] = tested on: Staphylococcus epidermidis C621
[6] = tested on: Escherichia coli CGSC 4908
[7] = tested on: Aeromonas salmonicida 97-4
[8] = tested on: Salmonella enterica serovar typhimurium MS7953s
[9] = tested on: Salmonella enterica subsp. enterica serovar Typhimurium ATCC 14028s
Escherichia coli DC2 = tested on: Escherichia coli DC2
[10] = tested on: Zymomonas mobilis ATCC 10988
Listeria innocua = tested on: Listeria innocua
Leuconostoc lactis = tested on: Leuconostoc lactis
Bacillus cereus = tested on: Bacillus cereus
Escherichia coli = tested on: Escherichia coli
Streptococcus uberis = tested on: Streptococcus uberis
[11] = tested on: Staphylococcus epidermidis
Staphylococcus aureus = tested on: Staphylococcus aureus
Pasteurella multocida = tested on: Pasteurella multocida
Micrococcus luteus = tested on: Micrococcus luteus
[12] = tested on: Escherichia coli DSM 1116
[13] = tested on: Bacillus subtilis DSM 347
[14] = tested on: Franconibacter helveticus DSM 18390
[15] = tested on: Staphylococcus xylosus DSM 20287
[16] = tested on: Aspergillus oryzae NBRC 100959
[17] = tested on: Candida viswanathii NBRC 10321
[18] = tested on: Staphylococcus epidermidis NBRC 12993
[19] = tested on: Escherichia coli NBRC 3972
[20] = tested on: Micrococcus luteus NBRC 3333
[21] = tested on: Lacticaseibacillus rhamnosus 1.0385
[22] = tested on: Escherichia coli ATCC 25922
[23] = tested on: Staphylococcus aureus ATCC 25923
[24] = tested on: Salmonella enterica subsp. enterica serovar Typhimurium C77-31
[25] = tested on: Lacticaseibacillus rhamnosus 1.0936
[26] = tested on: Salmonella enterica subsp. enterica serovar Pullorum C79-13
[27] = tested on: Lacticaseibacillus rhamnosus 7469
[28] = tested on: Salmonella enterica subsp. enterica serovar Typhimurium ATCC 14028
[29] = tested on: Lacticaseibacillus rhamnosus 1.0911
[30] = tested on: Pseudomonas aeruginosa ATCC 27853
Escherichia coli K88 = tested on: Escherichia coli K88
[31] = tested on: Lactiplantibacillus plantarum 8014
Escherichia coli K99 = tested on: Escherichia coli K99
[32] = tested on: Staphylococcus aureus ATCC 43300

MIC [16]: 7.78 µM (≈ 12.5 µg/mL) | MIC [17]: 15.6 µM (≈ 25 µg/mL) | MIC [18]: 15.6 µM (≈ 25 µg/mL) | MIC [19]: ≥ 125 µM | MIC [20]: 15.6 µM (≈ 25 µg/mL)
Structure (SMILES): CC[C@H](C)[C@H](NC(=O)[C@H](CCCCN)NC(=O)[C@@H](N)CCCN=C(N)N)C(=O)N[C@@H](CCCCN)C(=O)N[C@@H](CCCN=C(N)N)C(=O)N[C@@H](Cc1ccc(O)cc1)C(=O)N[C@@H](CC(C)C)C(=O)N[C@@H](CCCN=C(N)N)C(=O)N[C@@H](CCCN=C(N)N)C(=O)N[C@@H](CCSC)C(=O)N[C@@H](Cc1c[nH]c2ccccc12)C(=O)O [RKIKRYLRRMW]

MIC [21]: ≥ 64 µM | MIC [22]: 16 µM (≈ 15.3 µg/mL) | MIC [23]: 8 µM (≈ 7.67 µg/mL) | MIC [24]: 16 µM (≈ 15.3 µg/mL) | MIC (Escherichia coli UB1005): 16 µM (≈ 15.3 µg/mL) | MIC [25]: ≥ 64 µM | MIC [26]: ≥ 64 µM | MIC [27]: ≥ 64 µM | MIC [28]: 32 µM (≈ 30.7 µg/mL) | MIC [29]: ≥ 64 µM | MIC [30]: > 64 µM | MIC (Escherichia coli K88): 16 µM (≈ 15.3 µg/mL) | MIC (Escherichia coli K99): 16 µM (≈ 15.3 µg/mL) | MIC [32]: 8 µM (≈ 7.67 µg/mL)
Structure (SMILES): CC(C)C[C@H](NC(=O)[C@H](CC(C)C)NC(=O)[C@H](Cc1c[nH]c2ccccc12)NC(=O)[C@H](Cc1c[nH]c2ccccc12)NC(=O)[C@H](Cc1c[nH]c2ccccc12)NC(=O)[C@@H](N)CCCN=C(N)N)C(N)=O [RWWWLL]
MIC [31]: ≥ 64 µM

Continued, molecule first:

Structure (SMILES): CC(=O)[C@H](C)NC(=O)[C@H](C)NC(=O)[C@H](CC(N)=O)NC(=O)[C@H](CC(C)C)NC(=O)[C@H](Cc1ccc(O)cc1)NC(=O)CNC(=O)CNC(=O)CNC(=O)[C@H](Cc1cnc[nH]1)NC(=O)[C@H](Cc1cnc[nH]1)NC(=O)[C@@H](NC(=O)CNC(=O)[C@H](Cc1cnc[nH]1)NC(=O)[C@H](Cc1ccccc1)NC(=O)[C@H](CC(C)C)NC(=O)[C@H](CC(C)C)NC(=O)[C@H](CCCNC(=N)N)NC(=O)[C@H](Cc1ccccc1)NC(=O)[C@@H](N)Cc1ccccc1)C(C)C [FFRLLFHGVHHGGGYLNAA]
MIC [1]: 30.3 µM (≈ 63.9 µg/mL) | MIC [2]: 30.3 µM (≈ 63.9 µg/mL) | MIC (Candida albicans C627): 30.3 µM (≈ 63.9 µg/mL) | MIC [3]: 30.3 µM (≈ 63.9 µg/mL) | MIC [4]: 30.3 µM (≈ 63.9 µg/mL) | MIC (Escherichia coli UB1005): 30.3 µM (≈ 63.9 µg/mL) | MIC [5]: 30.3 µM (≈ 63.9 µg/mL) | MIC [6]: 30.3 µM (≈ 63.9 µg/mL) | MIC [7]: 30.3 µM (≈ 63.9 µg/mL) | MIC [8]: 30.3 µM (≈ 63.9 µg/mL) | MIC [9]: 30.3 µM (≈ 63.9 µg/mL) | MIC (Escherichia coli DC2): 30.3 µM (≈ 63.9 µg/mL)

Structure (SMILES): CC[C@H](C)[C@H](NC(=O)[C@H](CCCCN)NC(=O)[C@H](CCC(N)=O)NC(=O)[C@@H](NC(=O)[C@@H](NC(=O)[C@H](CCCN=C(N)N)NC(=O)[C@H](CCCCN)NC(=O)[C@@H](N)Cc1ccccc1)[C@@H](C)CC)C(C)C)C(=O)N[C@@H](CCCCN)C(=O)N[C@@H](CC(=O)O)C(=O)N[C@@H](Cc1ccccc1)C(=O)N[C@@H](CC(C)C)C(=O)N[C@@H](CCCN=C(N)N)C(N)=O [FKRIVQKIKDFLR]
MIC [10]: ≥ 118 µM

Structure (SMILES): CC[C@H](C)[C@H](NC(=O)[C@H](CO)NC(=O)[C@H](CO)NC(=O)[C@H](C)NC(=O)[C@@H](NC(=O)[C@H](Cc1cnc[nH]1)NC(=O)CNC(=O)[C@H](C)NC(=O)[C@@H](NC(=O)[C@H](CCCCN)NC(=O)[C@H](CCCCN)NC(=O)[C@@H](NC(=O)[C@@H](NC(=O)[C@H](CC(=O)O)NC(=O)[C@H](Cc1ccccc1)NC(=O)[C@H](CC(C)C)NC(=O)CN)[C@@H](C)CC)C(C)C)[C@@H](C)CC)[C@@H](C)CC)C(N)=O [GLFDIVKKIAGHIASSI]
MIC (Listeria innocua): ≥ 56.5 µM | MIC (Leuconostoc lactis): 3.39 µM (≈ 6 µg/mL) | MIC (Bacillus cereus): ≥ 56.5 µM | MIC (Escherichia coli): > 56.5 µM | MIC (Streptococcus uberis): 28.3 µM (≈ 50 µg/mL) | MIC [11]: 28.3 µM (≈ 50 µg/mL) | MIC (Staphylococcus aureus): 28.3 µM (≈ 50 µg/mL) | MIC (Pasteurella multocida): ≥ 56.5 µM | MIC (Micrococcus luteus): ≥ 56.5 µM

Structure (SMILES): CC[C@H](C)[C@H](N)C(=O)N[C@@H](C)C(=O)N[C@@H](CCCCN)C(=O)N[C@H](C(=O)N[C@@H](C)C(=O)NCC(=O)N[C@@H](CCCCN)C(=O)N[C@H](C(=O)N[C@@H](C)C(=O)N[C@@H](CCCCN)C(=O)N[C@H](C(=O)N[C@@H](C)C(=O)NCC(=O)N[C@@H](CCCCN)C(=O)N[C@H](C(=O)N[C@@H](C)C(N)=O)[C@@H](C)CC)[C@@H](C)CC)[C@@H](C)CC)[C@@H](C)CC [IAKIAGKIAKIAGKIA]
MIC [12]: ≥ 163 µM | MIC [13]: 28.9 µM (≈ 45.2 µg/mL) | MIC [14]: ≥ 116 µM | MIC [15]: ≥ 163 µM
